Measurements: a melting point compilation (Tetko et al.; mined from patent text by program, amines drawn as free bases though some values may be those of a salt)

Row | melting point [°C] | SMILES
1 | 68 to 70 | CC(O)C#CC1CCC2C3CCC4CC(O[Si](c5ccccc5)(c5ccccc5)C(C)(C)C)CCC4(C)C3CCC12C (stereo unspecified)
2 | 158 | O=S(=O)(Nc1ccccc1NCCOc1ccc(Cl)cc1)c1ccc(Cl)cc1
3 | 178 to 179 | CSC(Cc1ccc2oc(Cc3nc(-c4ccccc4)oc3C)cc2c1)C(=O)O (stereo unspecified)
4 | 184 to 188 | Nc1nc(-c2ccco2)c(C(=O)C2CCOCC2)s1
5 | 157 to 158 | COCCOc1ccc(/C=C/C(=O)NS(=O)(=O)c2cccc(Cl)c2)c(Oc2ncc(C(F)(F)F)cc2Cl)c1
6 | 175 to 176 | O=c1c2sccc2nc(CNc2ccccc2F)n1-c1ccccc1Cl
7 | 154 to 156 | COC(=O)c1ccc(-c2nc(C)no2)s1
8 | 225 to 260 | CC(=O)N1CC(C)(C)c2cc3nc(-c4ccnnc4)[nH]c3cc21
9 | 158 to 159 | CC(=O)CC(=O)NC1=Nc2ccc(Cl)cc2C(c2ccccc2)=NCC1
10 | 296 to 298 | COc1cc(OC)c(/C=C/S(=O)(=O)Nc2ccc(OC)c(NC(C)=O)c2)c(OC)c1
11 | 234 to 235 | O=C(Nc1ccncc1)c1ccc(-n2nc(C(F)(F)F)cc2C(F)(F)F)cc1
12 | 204 to 206 | CC(=O)N1C(=O)c2cccnc2N(C2CC2)c2nc(Cl)cc(C)c21
13 | 185 to 187 | CC(C)(C)c1cccc2c1C(=O)NS2(=O)=O
14 | 137 to 141 | CCCCCCCC(=O)CCCCCC(=O)N[C@@H](C)C(=O)N[C@H](CCC(=O)OCc1ccccc1)C(N)=O
15 | 150 to 152 | CCOCc1nc2c(N)nc3cccnc3c2n1NC(C)C
16 | 206 to 208 | Fc1cc(CC2(Cc3ccncc3)c3ccccc3Oc3ncccc32)ccn1 (stereo unspecified)
17 | 180 to 182 | C#Cc1cnc2c(C)cc(OC(SC)C(=O)NC(C)(C#N)CF)cc2c1 (stereo unspecified)
18 | 133 to 136 | CS(=O)c1nccc(-c2cn(Cc3ccccc3C#N)c(=O)n2-c2ccc(F)cc2)n1 (stereo unspecified)
19 | 83 to 85 | O=S(=O)(/C=C/c1ccccc1)Nc1ccc(F)cc1
20 | 120 to 122 | O=Cc1cccc2c1CN(c1ccccc1)C2
21 | 118 to 121 | O=c1c2ccccc2cc(Cl)c2ccccc12
22 | 134 to 135 | COc1ccc(C(=O)Nc2ccccc2)cc1NCc1cccc(F)c1F
23 | 201 to 202 | Cc1c(C)c2c(c(C)c1NC(=O)CC(C)(C)C)C(c1ccc(Br)cc1)C(C)(C)O2 (stereo unspecified)
24 | 63 to 66 | CCCc1c(OCCCCCC(=O)NCCCCc2ccccn2)ccc(C(C)=O)c1O

Row | melting point [°C] | SMILES
25 | 168 to 171 | CCOC(=O)C(C)(C)Oc1ccc(CCNC(=O)CCc2cc(C(C)(C)C)c(O)c(C(C)(C)C)c2)cc1
26 | 190 to 196 | COc1ccc(N2Cc3nc(C(=O)O)nn3-c3cccnc32)cc1
27 | 125 to 127 | CCOC(=O)c1cn(CC2CC2)c2cc(-n3cccc3)c(F)cc2c1=O
28 | 243 to 247 | Cc1cccc(Cl)c1C(=O)N[C@@H](Cc1ccc(-c2c(C(F)(F)F)n(C)c(=O)n(C)c2=O)cc1)C(=O)O
29 | 115 to 118 | COC(=O)c1csc(C(=O)CBr)c1OC(=O)c1ccccc1
30 | 159 to 160 | COc1cc(Br)ccc1C12CC3CC(CC(C3)C1)C2
31 | 110 to 112 | ClC(c1ccccc1)c1cccnn1 (stereo unspecified)
32 | 128 to 129 | FC(F)Oc1cc(Oc2ccnc(-c3cnccn3)n2)ccn1
33 | 243 | Cc1c(-c2ccccc2)[nH]c(=O)n1C1CCN(Cc2cccc(C(F)(F)F)c2)CC1
34 | 74 to 78 | CC12CCC3c4ccc(OCc5ccccc5)cc4CCC3C1CCC2OCc1ccccc1 (stereo unspecified)
35 | 70 to 73 | COC(=O)CCC1(CCC(=O)OC)CCC(=O)N1
36 | 119 to 120 | O=C(NC1CCN(C2CCCCC2)C1)c1cccc2ccccc12 (stereo unspecified)
37 | 87 to 89 | CN1CCN(CC(=O)NN)CC1
38 | 154 to 156 | O=NN1CCN(c2ccc(Cl)cc2)C1=O
39 | 208 to 209 | NS(=O)(=O)c1cc(C(=O)O)cc(SCc2ccccc2)c1Sc1ccccc1
40 | 237 to 241 | COc1cccc(CNC(=O)c2nc3scc(CCOc4ccc(C(=O)O)cc4)c3c(=O)[nH]2)c1
41 | 156 to 158 | CN1CC(=O)N(c2ccc(C(C)(C)C)cc2)C1=S
42 | 164 to 166 | OCCCNc1nc(-c2ccc(Cl)c(Cl)c2)nc2ccccc12
43 | 212 to 214 | CC(=S)Nc1ccc(-c2nc3ccccc3o2)cc1
44 | 167 to 168 | c1ccc(C(OC2CCN(CCCNc3ccc4nncn4n3)CC2)c2ccccc2)cc1
45 | 71 to 72 | CCOC(=O)Cc1c(C)nn(-c2ccc(OC)cc2)c1C
46 | 62 | C[C@@H](C(=O)OCCCCNc1cccc2c1C(=O)c1ccccc1C2=O)N(C)C(=O)OC(C)(C)C
47 | 93 to 98 | O=C(c1cc(Cl)cc(Cl)c1)N1CCN(Cc2ccccc2)C[C@H]1Cc1c[nH]c2ccccc12
48 | 112 to 115 | CS(=O)(=O)c1ccc(-n2cc(C(F)(F)F)nc2-c2ccc(-c3cscn3)cc2)cc1F

Row | melting point [°C] | SMILES
49 | 160 | NC(=O)NCCNc1ccc(N)cc1Cl
50 | 72 to 74 | CC(C)N1CCC(CNc2ccc(Cl)cc2C(=O)Nc2ccc(F)cn2)CC1
51 | > 260 | S=C1Nc2ccccc2C1(c1c[nH]c2ccccc12)C1CNc2ccccc21 (stereo unspecified)
52 | 127 | Cc1csc2nc3ccc(C(F)(F)F)cc3n12
53 | 107 to 110 | O=C(O)Cc1cnn(-c2ccccc2)c1-c1ccccc1
54 | 97 to 99 | O=C(O)C(=O)c1ccc(OCC#Cc2ccccc2)cc1
55 | 133 to 135 | COC(=O)c1cc(NC(C)=O)ccc1OC(C)=O
56 | 147 to 150 | Nc1cc(=O)n(CC2CCCCC2)c(=S)n1CC1CCCCC1
57 | 170 | CC1(C)Oc2ccc([N+](=O)[O-])cc2C(n2ccccc2=O)=C1CNC=O
58 | 205 to 207 | CCN(C(=O)CN1C(=O)c2ccccc2C1=O)c1ccc(C)c(CO)c1C
59 | 180 to 182 | CC(=O)OC1(C(C)=O)CCC2C3CCC4=CC(=O)CCC4(C)C3(Br)C(F)CC21C (stereo unspecified)
60 | 164 to 166 | O=C(c1ccc(-c2ccccc2)cc1)N1CCCCc2sccc21
61 | 152 to 154 | O=C(Nc1ccc(CCN2C(=O)[C@H]3CCC[C@H]3N(C(=O)CN3C(=O)c4ccccc4C3=O)c3ccccc32)cc1)OCc1ccccc1 (relative stereo)
62 | 252 to 253 | COc1ccc(Cn2c(=O)[nH]c3ccc(Cl)cc3c2=O)cc1
63 | > 300 | N#Cc1cccc(-c2ccc3c(Cl)cnc(NC(=N)N)c3c2)c1
64 | 197 to 200 | CCCCc1nc2c(N)nc3ccccc3c2n1CCCCNS(=O)(=O)Cc1ccccc1
65 | 90 | O=C(CBr)C(O)(CBr)c1ccc(F)cc1 (stereo unspecified)
66 | 150 to 152 | CCC(NC(=O)NS(=O)(=O)C=Cc1ccccc1)C(=O)O (stereo unspecified)
67 | 145 to 146 | CCOC(=O)c1ccc(C(F)(F)F)c(N(C)C(C)=O)n1
68 | 115 to 116 | COC(=O)c1c(Nc2ccccc2)nn(C(C)=O)c1C
69 | 121 to 125 | CC(=O)n1c(Br)cc(-c2ccc(F)cc2)c1-c1ccc(S(C)(=O)=O)cc1
70 | 137 to 139 | CCOC(=NC(=O)NC)N1Cc2ccccc2-c2ccccc2C1
71 | 164 to 165 | COc1cc2c3ccc(OC)c(OC)c3n(S(C)(=O)=O)c2cc1OC
72 | 144 to 145 | Oc1ccc(C2CC(c3ccccc3)=NN2c2ccccc2)cc1 (stereo unspecified)

Row | melting point [°C] | SMILES
73 | 154 to 156 | C=C(C)COc1ccc(NC(C)=O)c(C)c1C
74 | 85 to 86 | CCOC(=O)COc1ccc(NC(=O)OCc2ccccc2)cc1
75 | 219 | NC(=NO)C1CCc2ccccc2CC1
76 | 79 to 81 | CCC(C(=O)N(C)C)n1cc(C)c(-c2ccccc2OC)n1 (stereo unspecified)
77 | 120 to 123 | CCOC(=O)c1ncn(-c2nccs2)c1N
78 | > 360 | O=C(O)c1ccc2c(c1)S(=O)(=O)c1ccc([N+](=O)[O-])cc1C2=O
79 | 33.5 to 35 | CCOC(=O)COC(=O)CN1CCCCCC1=O
80 | 131 to 132 | COc1cccc(CC(=O)O)c1OCCCc1cn(-c2ccc(C(F)(F)F)nn2)nc1C(C)(C)C
81 | 218 | Cc1oc(-c2ccccc2)nc1C(O)COc1ccc(C=C2SC(=S)NC2=O)nc1 (stereo unspecified)
82 | 31 to 32 | CCCCCCCCCCCCSCCO
83 | > 200 | CCCCc1nc2c(n1Cc1ccc(-c3ccccc3S(N)(=O)=O)cc1)C(=NO)CCS2
84 | 134 to 135 | COc1cccc(C23CCCC=C2C(=O)N(CCc2ccccc2)C(=O)C3)c1 (stereo unspecified)
85 | 210 | O=c1[nH]ncc2cc(/C=C\c3ccc(O)cc3)ccc12
86 | 263 to 266 | CN(c1ccncc1)N1CCc2cc(O)ccc2C1
87 | 214 to 218 | CC(C)N1C(=S)NC(c2ccccc2)c2cc3c(cc21)OCO3 (stereo unspecified)
88 | 49 | CCOC(=O)c1nsc(=O)o1
89 | 79 to 84 | CC(C)(C)OC(=O)NCc1cccc(C2CCNCC2)c1
90 | 136 to 139 | CCCc1nc2c(N)nc3cc(OCCCCCCNC(=O)OC(C)(C)C)ccc3c2s1
91 | 222 to 224 | O=S1(=O)N=CN(C2CCCCCC2)c2cc(Cl)c(Cl)cc21
92 | 139 to 143 | COc1cc2cc(C(=O)N3CC(CCl)c4c3cc(NC(=O)C(C)(C)c3ccccc3[N+](=O)[O-])c3ccccc43)[nH]c2c(OC)c1OC (stereo unspecified)
93 | 215 to 218 | c1cnc2ccc(Cn3nnc4ccc(-c5cn[nH]c5)nc43)cc2c1

Row | SMILES | melting point [°C]
94 | NCCc1ccc(-c2ccc(O)cc2)cc1 | > 350
95 | NCCOc1nc2ccccc2n1C1CCN(C2(c3ccccc3)CCCCCC2)CC1 | 180 to 184
96 | CCOP(=S)(OCC)Oc1cc(C(=O)OC)sc1C(=O)OC | 50
97 | CN1C2C=C(c3c[nH]c4ccc(NC(=N)c5cccs5)cc34)CC1CC2 (stereo unspecified) | 93 to 95
98 | CS(=O)(=O)CS(=O)(=O)Cl | 109 to 111
99 | CC(C)(C1CCCCC1)C(NC(=O)c1ccc(Cl)cc1)NC(=N[N+](=O)[O-])Nc1cccnc1 (stereo unspecified) | 201 to 203
100 | CC(=O)OC1(C)CCC2C3C(C#N)CC4=CC(=O)CCC4(C)C3CCC21C (stereo unspecified) | 211 to 216
101 | Cc1cc(C)cc(COC2CCCCC2(N)c2ccccc2)c1 (stereo unspecified) | 75 to 78
